Test results published in patent publication US20250345446A1 (Draupnir Bio ApS, priority 2022, published 2025).

These compounds were tested against T1, soluble ectodomain of sortilin-6his (Homo sapiens, UniProt Q99523, V650M) (assay: MST binding to soluble ectodomain of sortilin-6his). Conditions: Table 4; small molecule bifunctional compounds; MST; read-out: KD score, binding to sortilin (Kd).
T1 construct: the soluble ectodomain of sortilin-6his is measured by microscale thermophoresis (MST)
Description: At this point the plate was sealed with adhesive strip and placed on an Eppendorf thermomixer to shake at 600 rpm for 3 min before spinning on a Fisherbrand plate-spinner for 15 seconds and further incubation 1 hrs at 19° C. MST was measured on a Monolith NT. Automated (Nanotemper) in standard-treated capillaries at 5% LED-power and high MST-power. Dose-response was extracted from the raw thermographs at 20 sec hot-time and the dissociation constant was estimated by sigmoidal curve fitting in MO. Affinity analysis program (Nanotemper). All experiments were run in duplicates.

T1 sequence (Q99523 with tags, fused parts or gaps V650M): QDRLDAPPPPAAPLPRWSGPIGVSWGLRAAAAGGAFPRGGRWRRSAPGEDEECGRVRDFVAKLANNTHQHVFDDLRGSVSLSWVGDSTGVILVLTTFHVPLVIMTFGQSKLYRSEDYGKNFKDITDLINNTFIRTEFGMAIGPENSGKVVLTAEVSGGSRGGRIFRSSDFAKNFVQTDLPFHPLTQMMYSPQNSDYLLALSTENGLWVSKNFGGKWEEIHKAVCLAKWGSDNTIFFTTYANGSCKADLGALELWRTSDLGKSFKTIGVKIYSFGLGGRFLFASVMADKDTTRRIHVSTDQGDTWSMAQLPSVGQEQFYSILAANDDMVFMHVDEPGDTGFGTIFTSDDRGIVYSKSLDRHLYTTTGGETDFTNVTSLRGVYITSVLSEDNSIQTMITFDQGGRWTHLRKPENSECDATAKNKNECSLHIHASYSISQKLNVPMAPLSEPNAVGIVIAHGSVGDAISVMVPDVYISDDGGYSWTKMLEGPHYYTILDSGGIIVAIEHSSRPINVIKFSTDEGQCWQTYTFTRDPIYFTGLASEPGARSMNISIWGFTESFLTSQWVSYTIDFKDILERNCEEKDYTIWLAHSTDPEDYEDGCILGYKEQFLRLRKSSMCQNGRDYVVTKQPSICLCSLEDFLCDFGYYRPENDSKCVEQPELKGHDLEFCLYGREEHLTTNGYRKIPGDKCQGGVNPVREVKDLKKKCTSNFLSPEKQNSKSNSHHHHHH

Row | Compound | Kd [nM]
1 | C[C@@H]1CN(c2ncc(-c3ccc4c(n3)N(Cc3cccnc3C#N)C(C)(C)C4=O)cn2)CCN1C(=O)COCCOCCOCCNC(=O)c1cccc(Oc2ccc(C(=O)N[C@@H](CCC(C)(C)C)C(=O)O)cn2)c1 [BF056, (2S)-2-[[6-[3-[2-[2-[2-[2-[(2R)-4-[5-[1-[(2-cyano-3-pyridyl)methyl]-2,2-dimethyl-3-oxo-pyrrolo[2,3-b]pyridin-6-yl]pyrimidin-2-yl]-2-methyl-piperazin-1-yl]-2-oxo-ethoxy]ethoxy]ethoxy]ethylcarbamoyl]phenoxy]pyridine-3-carbonyl]amino]-5,5-dimethyl-hexanoic acid] | 10 to 250
2 | C[C@@H]1CN(c2ncc(-c3ccc4c(n3)N(Cc3cccnc3C#N)C(C)(C)C4=O)cn2)CCN1C(=O)COCCNC(=O)c1cccc(Oc2ccc(C(=O)N[C@@H](CCC(C)(C)C)C(=O)O)cn2)c1 [BF058, (S)-2-(6-(3-((2-(2-((R)-4-(5-(1-((2-cyanopyridin-3-yl)methyl)-2,2-dimethyl-3-oxo-2,3-dihydro-1H-pyrrolo[2,3-b]pyridin-6-yl)pyrimidin-2-yl)-2-methylpiperazin-1-yl)-2-oxoethoxy)ethyl)carbamoyl)phenoxy)nicotinamido)-5,5-dimethyl hexanoic acid] | 1 to 10
3 | CC(C)(C)CC[C@H](NC(=O)c1ccc(Oc2cccc(C(=O)NCCOCCNc3ncc(-c4ccc5c(n4)N(Cc4cccnc4C#N)C(C)(C)C5=O)cn3)c2)nc1)C(=O)O [BF060, (2S)-2-[[6-[3-[2-[2-[[5-[1-[(2-cyano-3-pyridyl)methyl]-2,2-dimethyl-3-oxo-pyrrolo[2,3-b]pyridin-6-yl]pyrimidin-2-yl]amino]ethoxy]ethylcarbamoyl]phenoxy]pyridine-3-carbonyl]amino]-5,5-dimethyl-hexanoic acid] | 1 to 10
4 | CC(C)(C)CC[C@H](NC(=O)c1ccc(Oc2cccc(C(=O)NCCOCCOCCOCCOCCNc3ncc(-c4ccc5c(n4)N(Cc4cccnc4C#N)C(C)(C)C5=O)cn3)c2)nc1)C(=O)O [BF062, (2S)-2-[[6-[3-[2-[2-[2-[2-[2-[[5-[1-[(2-cyano-3-pyridyl)methyl]-2,2-dimethyl-3-oxo-pyrrolo[2,3-b]pyridin-6-yl]pyrimidin-2-yl]amino]ethoxy]ethoxy]ethoxy]ethoxy]ethylcarbamoyl]phenoxy]pyridine-3-carbonyl]amino]-5,5-dimethyl-hexanoic acid] | 1 to 10
5 | C[C@@H]1CN(c2ncc(-c3ccc4c(n3)N(Cc3cccnc3C#N)C(C)(C)C4=O)cn2)CCN1C(=O)COCCNC(=O)COc1cccc(Oc2ccc(C(=O)N[C@@H](CCC(C)(C)C)C(=O)O)cn2)c1 [BF064, (S)-2-(6-(3-(2-((8-(2-((R)-4-(5-(1-((2-cyanopyridin-3-yl)methyl)-2,2-dimethyl-3-oxo-2,3-dihydro-1H-pyrrolo[2,3-b]pyridin-6-yl)pyrimidin-2-yl)-2-methylpiperazin-1-yl)-2-oxoethoxy)methyl)amino)-2-oxoethoxy)phenoxy)nicotinamido)-5,5-dimethylhexanoic acid] | 1 to 10

Second part, the compound after the results:

Row | Kd [nM] | Compound
6 | < 1 | CC(C)(C)CC[C@H](NC(=O)c1ccc(Oc2cccc(C(=O)NCCOCCOCCOCCOCCOCCOc3ncc(-c4ccc5c(n4)N(Cc4cccnc4C#N)C(C)(C)C5=O)cn3)c2)nc1)C(=O)O [BF059]
7 | < 1 | CC(C)(C)CC[C@H](NC(=O)c1ccc(Oc2cccc(C(=O)NCCOCCOCCOCCOCCOCCNc3ncc(-c4ccc5c(n4)N(Cc4cccnc4C#N)C(C)(C)C5=O)cn3)c2)nc1)C(=O)O [BF067, (2S)-2-[[6-[3-[2-[2-[2-[2-[2-[2-[[5-[1-[(2-cyano-3-pyridyl)methyl]-2,2-dimethyl-3-oxo-pyrrolo[2,3-b]pyridin-6-yl]pyrimidin-2-yl]amino]ethoxy]ethoxy]ethoxy]ethoxy]ethoxy]ethylcarbamoyl]phenoxy]pyridine-3-carbonyl]amino]-5,5-dimethyl-hexanoic acid]
